Read-outs that look alike come from different tables or passages of the source.
Tests used:
[1] = target: BTK enzyme (recombinant full-length BTK, hBTK) (Homo sapiens (Human), UniProt Q06187); test: BTK enzymatic activity LANCE TR-FRET assay; type: biochemical; details: 50 pM hBTK, 25 μM ATP, 2 μM biotin-A5-peptide; compound range 1 μM to 0.017 nM; read-out: BTK binding IC50
[2] = system: adenosine uptake into HeLa cells; test: [3H]Adenosine uptake assay in HeLa cells; type: cell-based; details: [3H]adenosine accumulation in HeLa cells, compound range 10 μM to 0.032 nM, read-out: ADU inhibition IC50
Summary of the method: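 IC50 came from a 4-parameter fit of counts per second over a ten-point, 1:3 titration (final 10 µM down to […]). Compound was applied 30 min at ambient temperature in HBSS/5% FBS before a 500 nM [3H]adenosine solution was added; uptake ran 60 min, read by Cytostar-T proximity scintillation.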

Chain of BTK enzyme (recombinant full-length BTK, hBTK) (Q06187 whole entry): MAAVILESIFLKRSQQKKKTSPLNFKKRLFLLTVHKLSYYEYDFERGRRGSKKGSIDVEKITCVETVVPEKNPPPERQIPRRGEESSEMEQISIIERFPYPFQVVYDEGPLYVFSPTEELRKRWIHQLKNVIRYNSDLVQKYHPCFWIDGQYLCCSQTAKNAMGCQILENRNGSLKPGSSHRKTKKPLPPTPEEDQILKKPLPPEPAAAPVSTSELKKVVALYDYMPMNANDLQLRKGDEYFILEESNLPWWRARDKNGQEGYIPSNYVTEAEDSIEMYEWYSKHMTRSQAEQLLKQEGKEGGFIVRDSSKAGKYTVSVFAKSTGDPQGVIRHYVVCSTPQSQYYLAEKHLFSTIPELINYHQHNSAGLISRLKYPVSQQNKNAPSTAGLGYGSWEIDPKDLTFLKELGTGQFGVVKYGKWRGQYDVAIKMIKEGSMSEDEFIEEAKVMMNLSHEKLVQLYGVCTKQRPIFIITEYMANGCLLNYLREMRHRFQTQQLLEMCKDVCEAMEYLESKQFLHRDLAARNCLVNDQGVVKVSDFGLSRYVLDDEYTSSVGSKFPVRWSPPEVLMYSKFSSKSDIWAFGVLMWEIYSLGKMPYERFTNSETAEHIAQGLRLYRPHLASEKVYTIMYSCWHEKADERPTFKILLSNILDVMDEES

SMILES | IC50 [1] | IC50 ([2]; Homo sapiens, HeLa) | IC50 [2]
C[C@@](O)(c1ccc(-c2nc([C@@H]3CC[C@H]4CCC(=O)N4C3)n3ccnc(N)c23)cc1)c1ccnc(C(F)(F)F)c1 [Example 155, (6R,8aS)-6-[8-amino-1-(4-{(1R)-1-hydroxy-1-[2-(trifluoromethyl)pyridin-4-yl]ethyl}phenyl)imidazo [1,5-a]pyrazin-3-yl]hexahydroindolizin-3(2H)-one] | 858 nM | 2750 nM | –
C[C@@](O)(c1ccc(-c2nc([C@H]3CC[C@@H]4COCC(=O)N4C3)n3ccnc(N)c23)cc1)c1cccc(C(F)(F)F)c1 [Example 156, (7S,9aR)-7-(8-amino-1-(4-{(1R)-1-hydroxy-1-[3-(trifluoromethyl)pheny]ethyl}phenyl)imidazo [1,5-a]pyrazin-3-yl]hexahydropyrido[2,1-c][1,4]oxazin-4(3H)-one] | 72.3 nM | 1470 nM | –
C[C@@](O)(c1ccc(-c2nc([C@@H]3CC[C@H]4COCC(=O)N4C3)n3ccnc(N)c23)cc1)c1cccc(C(F)(F)F)c1 [Example 157, (7R,9aS)-7-[8-amino-1-(4-{(1R)-1-hydroxy-1-[3-(trifluoromethyl)phenyl]ethyl}phenyl)imidazo [1,5-a]pyrazin-3-yl]hexahydropyrido[2,1-c][1,4)oxazin-4(3H)-one] | 1.9 nM | 2220 nM | –
C[C@@](O)(c1ccc(-c2nc([C@@H]3CC[C@H]4CCC(=O)N4C3)n3c(F)cnc(N)c23)cc1)c1cccc(C(F)(F)F)c1 [Example 158, (6R,8aS)-6-[8-amino-5-fluoro-1-(4-{(1R)-1-hydroxy-1-[3-(trifluoromethyl)phenyl]ethyl}phenyl)imidazo [1,5-a]pyrazin-3-yl]hexahydroindolizin-3(2H)-one] | 4.7 nM | 6300 nM | –
CC(O)(c1ccc(-c2nc([C@@H]3CC[C@H]4CCC(=O)N4C3)n3ccnc(N)c23)cc1)c1cccc(C2CC2(F)F)c1 (stereo partly drawn) [Example 159, (6R,8aS)-6-[8-amino-1-(4-{1-[3-(2,2-difluorocyclopropyl)phenyl]-1-hydroxyethyl}phenyl)imidazo[1,5-a]pyrazin-3-yl]hexahydroindolizin-3(2H)-one] | 0.1 nM | – | 1880 nM
CC(O)(c1ccc(-c2nc([C@@H]3CC[C@H]4CCC(=O)N4C3)n3ccnc(N)c23)cc1)c1cccc(C2CC2(F)F)c1 (stereo partly drawn) [Example 160, (6R,8aS)-6-[8-amino-1-(4-{1-[3-(2,2-difluorocyclopropyl)phenyl]-1-hydroxyethyl}phenyl)imidazo[1,5-a]pyrazin-3-yl]hexahydroindolizin-3(2H)-one] | 0.07 nM | – | 1840 nM
CC1(C)CC(=O)N2C[C@@H](c3nc(-c4ccc([C@@](C)(O)c5cccc(C(F)(F)F)c5)cc4)c4c(N)nccn34)CC[C@@H]21 [Example 161, (6S,8aR)-6-[8-amino-1-(4-{(1R)-1-hydroxy-1-[3-(trifluoromethyl)phenyl]ethyl}phenyl)imidazo [1,5-a]pyrazin-3-yl]-1,1-dimethylhexahydroindolizin-3(2H)-one] | 0.27 nM | 2140 nM | –
CCOc1cc(C(C)(O)c2cccc(C(F)(F)F)c2)ccc1-c1nc([C@@H]2CC[C@H]3CCC(=O)N3C2)n2ccnc(N)c12 (stereo partly drawn) [Example 162, (6R,8aS)-6-[8-amino-1-(2-ethoxy-4-{1-hydroxy-1-[3-(trifluoromethyl)phenyl]ethyl}phenyl)imidazo [1,5-a]pyrazin-3-yl]hexahydroindolizin-3(2H)-one] | 0.63 nM | 4210 nM | –
CC1(C)CC(=O)N2C[C@@H](c3nc(-c4ccc([C@@](C)(O)c5cccc(C(F)(F)F)c5)cc4)c4c(N)nccn34)CC[C@@H]21 [Example 163, (6S,8aR)-6-[8-amino-1-(4-{(1R)-1-hydroxy-1-[3-(trifluoromethyl)phenyl]ethyl}phenyl)imidazo [1,5-a]pyrazin-3-yl]-1,1-dimethylhexahydroindolizin-3(2H)-one] | 169 nM | – | 1560 nM
CC(O)(c1ccc(-c2nc([C@@H]3CC[C@H]4CCC(=O)N4C3)n3ccnc(N)c23)cc1)c1cccc(C2CC2(F)F)c1 (stereo partly drawn) [Example 164, (6R,8aS)-6-[8-amino-1-(4-{1-[3-(2,2-difluorocyclopropyl)phenyl]-1-hydroxyethyl}phenyl)imidazo[1,5-a]pyrazin-3-yl]hexahydroindolizin-3(2H)-one] | 48 nM | – | 830 nM
CC(O)(c1ccc(-c2nc([C@@H]3CC[C@H]4CCC(=O)N4C3)n3ccnc(N)c23)cc1)c1cccc(C2CC2(F)F)c1 (stereo partly drawn) [Example 165, (6R,8aS)-6-[8-amino-1-(4-{1-[3-(2,2-difluorocyclopropyl)phenyl]-1-hydroxyethyl}phenyl)imidazo[1,5-a]pyrazin-3-yl]hexahydroindolizin-3(2H)-one] | 28.9 nM | – | 1090 nM

Second part, the molecule after the results:

IC50 [1] | IC50 ([2]; Homo sapiens, HeLa) | IC50 [2] | SMILES
2 nM | – | 10000 nM | CCOc1cc(C(C)(O)c2cccc(C)c2)ccc1-c1nc([C@@H]2CC[C@H]3CCC(=O)N3C2)n2ccnc(N)c12 (stereo partly drawn) [Example 166, (6R,8aS)-6-(8-amino-1-{2-ethoxy-4-[1-hydroxy-1-(3-methylphenyl)ethyl]phenyl}imidazo[1,5-a]pyrazin-3-yl)hexahydroindolizin-3(2H)-one]
20.6 nM | – | 2410 nM | CCOc1cc(C(C)(O)c2cccc(C(F)(F)F)c2)ccc1-c1nc([C@@H]2CC[C@H]3CCC(=O)N3C2)n2ccnc(N)c12 (stereo partly drawn) [Example 167, (6R,8aS)-6-[8-amino-1-(2-ethoxy-4-{1-hydroxy-1-[3-(trifluoromethyl)phenyl]ethyl}phenyl)imidazo [1,5-a]pyrazin-3-yl]hexahydroindolizin-3(2H)-one]
60.3 nM | – | 3650 nM | CCOc1cc(C(C)(O)c2cccc(C)c2)ccc1-c1nc([C@@H]2CC[C@H]3CCC(=O)N3C2)n2ccnc(N)c12 (stereo partly drawn) [Example 168, (6R,8aS)-6-(8-amino-1-{2-ethoxy-4-[1-hydroxy-1-(3-methylphenyl)ethyl]phenyl}imidazo[1,5-a]pyrazin-3-yl)hexahydroindolizin-3(2H)-one]
7.2 nM | 4530 nM | – | C[C@@](O)(c1ccc(-c2nc([C@H]3CN4C(=O)CC[C@@H]4CO3)n3ccnc(N)c23)cc1)c1cccc(C(F)(F)F)c1 [Example 169, (3R,8aR)-3-[8-amino-1-(4-{(1R)-1-hydroxy-1-[3-(trifluoromethyl)phenyl]ethyl}phenyl)imidazo[1,5-a]pyrazin-3-yl]hexahydro-6H-pyrrolo[2,1-c][1,4]oxazin-6-one]
556 nM | 7110 nM | – | C[C@@](O)(c1ccc(-c2nc([C@@H]3CC[C@H]4N(C3)C(=O)CCC4(F)F)n3ccnc(N)c23)cc1)c1cccc(C(F)(F)F)c1 [Example 170, (7R,9aR)-7-[8-amino-1-(4-{(1R)-1-hydroxy-1-[3-(trifluoromethyl)phenyl]ethyl}phenyl)imidazo [1,5-a]pyrazin-3-yl]-1,1-difluorooctahydro-4H-quinolizin-4-one]
89 nM | 7960 nM | – | C[C@@](O)(c1ccc(-c2nc([C@H]3CC[C@@H]4N(C3)C(=O)CCC4(F)F)n3ccnc(N)c23)cc1)c1cccc(C(F)(F)F)c1 [Example 171, (7S,9aS)-7-[8-amino-1-(4-{(1R)-1-hydroxy-1-[3-(trifluoromethyl)phenyl]ethyl}phenyl)imidazo [1,5-a]pyrazin-3-yl]-1,1-difluorooctahydro-4H-quinolizin-4-one]
258 nM | 5320 nM | – | C[C@@](O)(c1ccc(-c2nc([C@@H]3CC[C@@H]4[C@@H](C(F)(F)F)CC(=O)N4C3)n3ccnc(N)c23)cc1)c1cccc(C(F)(F)F)c1 [Example 172, (1S,6R,8aR)-6-[8-amino-1-(4-{(1R)-1-hydroxy-1-[3-(trifluoromethyl)phenyl]ethyl}phenyl)imidazo [1,5-a]pyrazin-3-yl]-1-(trifluoromethyl) hexahydroindolizin-3(2H)-one]
22.2 nM | 5110 nM | – | C[C@@](O)(c1ccc(-c2nc([C@@H]3CC[C@H]4CCC(=O)N4C3)n3c(C(F)(F)F)cnc(N)c23)cc1)c1cccc(C(F)(F)F)c1 [Example 173, (6R,8aS)-6-[8-amino-1-(4-{(1R)-1-hydroxy-1-[3-(trifluoromethyl)phenyl]ethyl}phenyl)-5-(trifluoromethyl)imidazo [1,5-a]pyrazin-3-yl]hexahydroindolizin-3(2H)-one]
85.7 nM | 1160 nM | – | C[C@@](O)(c1ccc(-c2nc([C@H]3CC[C@@H]4COCC(=O)N4C3)n3c(Cl)cnc(N)c23)cc1)c1cccc(C(F)(F)F)c1 [Example 174, (7S,9aR)-7-[8-amino-5-chloro-1-(4-{(1R)-1-hydroxy-1-[3-(trifluoromethyl)phenyl]ethyl}phenyl)imidazo [1,5-a]pyrazin-3-yl]hexahydropyrido[2,1-c][1,4]oxazin-4(3H)-one]
1.5 nM | 1380 nM | – | C[C@@](O)(c1ccc(-c2nc([C@@H]3CC[C@H]4COCC(=O)N4C3)n3c(Cl)cnc(N)c23)cc1)c1cccc(C(F)(F)F)c1 [Example 175, (7R,9aS)-7-(8-amino-5-chloro-1-(4-{(1R)-1-hydroxy-1-[3-(trifluoromethyl)phenyl]ethyl}phenyl)imidazo [1,5-a]pyrazin-3-yl]hexahydropyrido[2,1-c][1,4]oxazin-4(3H)-one]
7.5 nM | 4270 nM | – | C[C@@](O)(c1ccc(-c2nc([C@H]3CN4C(=O)COC[C@@H]4CO3)n3ccnc(N)c23)cc1)c1cccc(C(F)(F)F)c1 [Example 176, (7R,9aR)-7-[8-amino-1-(4-{(1R)-1-hydroxy-1-[3-(trifluoromethyl)phenyl]ethyl}phenyl)imidazo [1,5-a]pyrazin-3-yl]tetrahydro-1H-[1,4]oxazino[3,4-c][1,4]oxazin-4(3H)-one]
